Data on three molecules can be found in article PMC6271077, “Synthesis, Anticancer and Antibacterial Activity of Salinomycin N-Benzyl Amides” (Molecules, 2014).

Where two headings read alike, the source gives them in different places.

The subject of experiment [1] is HL-60. Put plainly: Antiproliferative MTT assay, HL-60. The format is cell-based, human. To be noted: for IC50: Homo sapiens, read-out: IC50 HL-60; for SI HL-60: SI = IC50 BALB/3T3 / IC50 HL-60. The method in brief:
(§1)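 Leukemia cells seeded at 10^4 per well and exposed 24 h later to four concentrations (100–0.1 µg/mL) for 72 h; HL-60/vinc cultured with doxorubicin. MTT added 4 h, formazan lysed 24 h, absorbance 570 nm; IC50 from triplicates, ≥3 independent experiments.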
On the technique in general: Formazan colour is commonly taken as a measure of viable cells.

Experiment [2] concerns HL-60/vinc. Put plainly: Antiproliferative MTT assay, HL-60/vinc. It counts as cell-based, human. The note with it: for IC50: Homo sapiens, HL60/vinc, 72 h, read-out: IC50 HL-60/vinc; for IR HL-60/vinc: IR = IC50 HL-60/vinc / IC50 HL-60; for SI HL-60/vinc: SI = IC50 BALB/3T3 / IC50 HL-60/vinc. The method in brief:
as §1

In experiment [3] the test system is MRSA. Put plainly: MIC microdilution, MRSA strains overall (range given). The format is cell-based, Staphylococcus aureus. The note with it: hospital MRSA strains. (In general: Dilution methods test growth across graded concentrations, often in twofold steps.)
For experiment [4], the system named is standard strains of Gram-positive bacteria. Put plainly: MIC microdilution, standard Gram-positive strains overall (range given). The format is cell-based. To be noted: standard S. aureus and S. epidermidis strains.
Experiment [5] has as its system MRSA and MRSE. Put plainly: MIC microdilution, MRSA and MRSE overall (range given). It counts as cell-based. The note with it: hospital MRSA and MRSE strains.
For experiment [6], the system named is HL-60, HL-60/vinc, LoVo, LoVo/dx. Put plainly: Antiproliferative assays, all four cancer cell lines (range given). The format is cell-based. The note with it: Homo sapiens, read-out: IC50 (range over the cancer cell lines). An excerpt: Four human cancer cell lines and one normal cell line were used to evaluate anticancer activity of SAL and its N-benzyl amides: human acute promyelocytic leukemia (HL-60) and its vincristine resistant subline (HL-60/vinc), human colon adenocarcinoma cell lines sensitive (LoVo) and resistant to doxorubicin (LoVo/dx) as well as also normal murine embryonic fibroblast cell line (BALB/3T3). The BALB/3T3 cell line was purchased from the American Type Culture Collection (ATCC Rockville, MD, USA), HL-60 cell line from European Type Culture Collection by courtesy of Professor Spik and Dr Mazurier (Laboratory of Biological Chemistry USTL, Lille, France) and HL-60/vinc, LoVo and LoVo/dx by courtesy of Prof. E. Borowski (Technical University of Gdańsk, Gdańsk, Poland). All the cell lines are maintained in the Institute of Immunology and Experimental Therapy (IIET), Wrocław, Poland.
Human leukemia cells were cultured in ISCOVE medium (IIET, Wroclaw, Polond) containing 10% fetal bovine serum and 2 mM L-glutamine (Sigma Aldrich) and 1 µg/100 mL […] for HL-60/vinc (Sigma Aldrich). Human colon adenocarcinoma cell lines were cultured in mixture of OptiMEM and RPMI 1640 (1:1) medium (IIET) supplemented with 5% fetal bovine serum (Thermo Fisher Scientific, Waltham, MA, USA), 2 mM L-glutamine, 1 mM sodium pyruvate (Sigma Aldrich) and 10 µg/100 mL doxorubicin for LoVo/dx (Sigma Aldrich). Murine embryonic fibroblast cells were cultured in Dulbecco medium (Gibco, Darmstadt, Germany) supplemented with 10% fetal bovine serum (Thermo Fisher Scientific) and 2 mM L-glutamine (Sigma Aldrich). All culture media contained antibiotics: 100 U/mL penicillin (Sigma Aldrich) and 100 µg/mL streptomycin (Polfa-Tarchomin, City, Poland). All cell lines were cultured during entire experiment in humid atmosphere at 37 °C and 5% CO2.
Twenty four hours before adding the tested compounds all cell lines were seeded in 96-well plates (Sarstedt, Nümbrecht, Germany) in appropriate media with 10^4 cells per well. All cell lines were exposed to each tested agent at four different concentrations from the range 100 to 0.1 µg/mL for 72 h. The cells were also exposed to the reference drugs: cisplatin (Accord, London, UK) and doxorubicin hydrochloride (Fluka, St. Louis, MO, USA). Additionally, all cell lines were exposed to DMSO (the solvent used for tested compounds, Sigma Aldrich) at the concentrations corresponding to those in the tested agent dilutions. For adherent cells sulphorodamine B assay was performed and MTT assay for leukemia cells.
After 72 h of incubation with tested compounds the cells were fixed in situ by gently adding of 50 µL per well of cold 50% trichloroacetic acid TCA (Avantor Performance Materials, City, Poland) and were incubated at 4 °C for 1 h. Then the wells were washed four times with water and air-dried. Next, 50 µL of 0.2% solution of sulphorodamine B (Sigma Aldrich) in 1% acetic acid (Avantor Performance Materials) were added to each well and plates were incubated at room temperature for 0.5 h. After incubation time, unbound dye was removed by washing plates four times with 1% acetic acid, whereas the stain bound to cells was solubilized with 150 µL of 10 mM Tris base (Sigma Aldrich). Absorbance of each solution was read at Synergy H4 photometer (BioTek Instruments, Winooski, VT, USA) at 540 nm wavelength.
Proliferation inhibition of leukemia cells by tested compounds was measured by means of MTT assay. […]

Experiment [7] concerns breast cancer stem cells (CSCs). Also on record: method as in PMID 19682730. To be noted: versus Taxol; cited from earlier work.

Consider `CC[C@H](C(=O)NCc1ccc(F)cc1)C1CC[C@H](C)C([C@@H](C)[C@H](O)[C@H](C)C(=O)[C@H](CC)C2O[C@]3(C=C[C@@H](O)C4(CC[C@@](C)(C5CC[C@](O)(CC)[C@H](C)O5)O4)O3)[C@H](C)C[C@@H]2C)O1` (some centres unmarked) [F-p], for which the IC50 in experiment [1] (HL-60, 72 h, MTT, mean ± SD, NA: not active in concentrations used (up to 100 µg/mL)) was determined as 3600 ± 690 nM. Moreover, the “SI HL-60” value in experiment [1] is on record as 2.40. Also, in experiment [2], the IC50 is 11.8 ± 2.56 µM, the “IR HL-60/vinc” value was found to be 3.28 and the “SI HL-60/vinc” value is listed as 0.73. In addition, the “MIC (range over MRSA strains)” value in experiment [3] fell in the range of 16 to 64 µg/mL. In addition, the “MIC (range over standard strains of Gram-positive bacteria)” value in experiment [4] lay within 16 to 32 µg/mL. In addition, in experiment [5], the “MIC (range over MRSA and MRSE)” value is 16 to 128 µg/mL.
With `CC[C@H](C(=O)NCc1ccc([N+](=O)[O-])cc1)C1CC[C@H](C)C([C@@H](C)[C@H](O)[C@H](C)C(=O)[C@H](CC)C2O[C@]3(C=C[C@@H](O)C4(CC[C@@](C)(C5CC[C@](O)(CC)[C@H](C)O5)O4)O3)[C@H](C)C[C@@H]2C)O1` (some centres unmarked) [NO2-p], the “MIC (range over standard strains of Gram-positive bacteria)” value in experiment [4] worked out at 128 µg/mL. Moreover, the “MIC (range over MRSA and MRSE)” value in experiment [5] lay within 128 to 256 µg/mL.
For the molecule `CC[C@@H](C(=O)[C@@H](C)[C@@H](O)[C@H](C)[C@@H]1O[C@@H]([C@@H](CC)C(=O)O)CC[C@@H]1C)[C@H]1O[C@]2(C=C[C@@H](O)[C@]3(CC[C@@](C)([C@H]4CC[C@](O)(CC)[C@H](C)O4)O3)O2)[C@H](C)C[C@@H]1C` [SAL, Salinomycin], in experiment [1] (HL-60, 72 h), the IC50 came out at 330 ± 120 nM. In experiment [1], the “SI HL-60” value is recorded as 39.45. Also, in experiment [2], the IC50 worked out at 2.33 ± 0.12 µM, the “IR HL-60/vinc” value stood at 7.06 and the “SI HL-60/vinc” value stood at 5.59. Moreover, the IC50 in experiment [6] fell in the range of 330 to 2330 nM. Besides, the “fold more effective than Taxol” value in experiment [7] is on record as roughly 100 fold.
